In PMC10281575, “PfCRT mutations conferring piperaquine resistance in falciparum malaria shape the kinetics of quinoline drug binding and transport” (PLOS Pathogens, 2023):
“And” between values parts separate entries of the source, which are not always exact repeats. Equal values may be shown once.

Columns and labels:
PfCRT^Dd2 [1] = biological target: T1, PfCRT^Dd2 (Plasmodium falciparum, UniProt Q8IBZ9, A220S/I356T/K76T/M74I/N326S/N75E/Q271E/R371I); assay: Competition plot (Vtotal versus proportion of PPQ in CQ/PPQ mixtures), PfCRT^Dd2; assay type: cell-based; design: expressed in transfected cells; host or cells: Xenopus laevis oocytes injected with in vitro transcribed RNA (pSP64T)
T1 sequence (Q8IBZ9 1-424 M74I/N75E/K76T/A220S/Q271E/N326S/I356T/R371I): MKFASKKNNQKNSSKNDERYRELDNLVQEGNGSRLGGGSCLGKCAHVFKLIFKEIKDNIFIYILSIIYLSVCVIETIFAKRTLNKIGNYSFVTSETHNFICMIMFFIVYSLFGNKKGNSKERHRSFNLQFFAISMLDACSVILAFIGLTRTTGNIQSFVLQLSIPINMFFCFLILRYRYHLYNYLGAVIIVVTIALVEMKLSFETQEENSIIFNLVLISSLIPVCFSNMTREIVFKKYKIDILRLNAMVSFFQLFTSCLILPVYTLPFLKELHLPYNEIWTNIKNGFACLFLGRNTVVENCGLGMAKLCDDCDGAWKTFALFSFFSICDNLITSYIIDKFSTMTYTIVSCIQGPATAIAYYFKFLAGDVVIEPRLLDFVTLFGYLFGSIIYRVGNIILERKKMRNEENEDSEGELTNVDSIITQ
Protocol: To test this hypothesis, we performed competition plot experiments, in which the enzyme or carrier is exposed to substrate mixtures that give the same transport rate for different substrates. The experiment is performed with substrate A labeled and then repeated with substrate B labeled.
The competition plot tests whether two substrates bind to the same site or distinct sites on an enzyme or transporter. A competitive reaction would yield data points that lie on a horizontal line, whereas allosteric interactions would reveal a curved relationship. […] Vtotal was subsequently analyzed as a function of the proportion of PPQ in the mixture (P). For more details see Materials and Methods. The mean ± SEM of at least 3 independent biological replicates are shown.
The competition plot was performed as described elsewhere. […] These corresponded to values of P equal to 0, 0.25, 0.5, 0.75, 0.9 and 1. A plot of Vtotal as a function of P yielded the competition plots. If both substrates bind to the same site, then a constant Vtotal is expected across all P values (e.g. data lies on a horizontal line). If the substrates bind to different sites, and they inhibit each other’s transport, it is expected that the curve is concave with either a minimum or a maximum.

PfCRT^Dd2 [2] = biological target: T1, PfCRT^Dd2; assay: Radiolabeled drug uptake (transport assay) in Xenopus laevis oocytes expressing PfCRT^Dd2; assay type: cell-based; design: expressed in transfected cells; host or cells: Xenopus laevis oocytes injected with in vitro transcribed RNA (pSP64T)
Protocol: The two kinetic parameters were derived by fitting the Michaelis-Menten equation to the kinetic data (Table 1).
Adult female X. laevis frogs (purchased from NASCO) were anesthetized by submersion in a solution of 0.3% (w/v) 3-amino benzoate methanesulfonate for 15 min. Sections of the ovary were surgically removed and placed in Ca^2+-free ND96 buffer supplemented with 0.1% collagenase D (w/v; Roche), 0.5% BSA (w/v) and 9 mM Na2HPO4 at 18°C for 14–16 h while gently shaking. The oocytes were then washed several times with ND96 buffer (5 mM HEPES, pH 7.5, 96 mM NaCl, 2 mM KCl, 1.8 mM CaCl2, 1 mM MgCl2), supplemented with […] gentamycin. Healthy-looking stage V-VI oocytes were manually selected and randomly grouped for injection. A codon-optimized coding sequence of PfCRT was subcloned into the pSP64T expression vector and subsequently linearized using the restriction endonuclease BamHI or SalI (New England Biolabs GmbH). RNA for injection was transcribed in vitro using the mMESSAGE mMACHINE SP6 Transcription kit (Ambion), diluted with nuclease-free water to a final concentration of 0.6 μg/μL and stored at -80°C. RNA was injected using precision-bore glass capillary tubes (3.5-inch glass capillaries; Drummond Scientific Co.), which were pulled on a vertical puller (P-87 Flaming/Brown micropipette puller, Sutter Instrument Co.) and graduated. The micropipettes were connected to a microinjector (Nanoject II Auto-Nanoliter Injector, Drummond Scientific Co.). Injection was conducted under stereomicroscopic control. 50 nL of nuclease-free water alone (control oocytes) or 50 nL of nuclease-free water containing 30 ng of RNA was injected per oocyte. Injected oocytes were kept for 72 h at 18°C in ND96 buffer with two daily buffer changes before being used for further experiments.
Drug transport assays were performed as previously described. Briefly, measurements of radiolabeled drug uptake were made over 1 h, unless otherwise specified. […] Where specified, one or more unlabeled drugs were also present at the indicated concentrations. […] The uptake assays were terminated by removing the oocytes from the reaction medium and washing them three times with 2 mL of ice-cold ND96 buffer. Each oocyte was transferred to a separate scintillation vial and lysed by the addition of 200 μL of a 5% SDS solution. The radioactivity in the sample was measured using a liquid scintillation analyser Tri-Carb 4910 TR (PerkinElmer). Water-injected oocytes were analyzed in parallel as a negative control. The buffer from each condition was measured in duplicate in parallel to each experiment to transform counts per minute into pmol of drug. Drug uptake attributable to PfCRT was determined by subtracting the background uptake from water-injected oocytes from that of PfCRT-expressing oocytes. In all cases, at least three independent experiments were performed on oocytes from different frogs, and for each condition in an experiment, measurements were made from 10 oocytes per treatment.

[3] = 50 μM CQ, pH 6.0, total uptake, one value per biological replicate
[4] = 50 μM CQ, pH 6.0, water-injected uptake subtracted, per replicate
[5] = 60 min, pH 6, per biological replicate

SMILES: CCN(CC)CCCC(C)Nc1ccnc2cc(Cl)ccc12 (centres unmarked) [CQ, chloroquine]
- PfCRTDd2-mediated CQ transport P = 0 (PfCRT^Dd2 [1]; CQ/PPQ mixture, P = 0, single replicates): 20.79 pmol oocyte-1 h-1 and 22.58 pmol oocyte-1 h-1 and 19.58 pmol oocyte-1 h-1 and 16.43 pmol oocyte-1 h-1
- PfCRTDd2-mediated CQ transport P = 0.25 (PfCRT^Dd2 [1]; CQ/PPQ mixture, P = 0.25, single replicates): 18.03 pmol oocyte-1 h-1 and 18.73 pmol oocyte-1 h-1 and 18.01 pmol oocyte-1 h-1
- PfCRTDd2-mediated CQ transport P = 0.5 (PfCRT^Dd2 [1]; CQ/PPQ mixture, P = 0.5, single replicates): 16.36 pmol oocyte-1 h-1 and 12.29 pmol oocyte-1 h-1
- PfCRTDd2-mediated CQ transport P = 0.75 (PfCRT^Dd2 [1]; CQ/PPQ mixture, P = 0.75, single replicates): 7.91 pmol oocyte-1 h-1 and 7.73 pmol oocyte-1 h-1 and 11.16 pmol oocyte-1 h-1 and 8.67 pmol oocyte-1 h-1
- PfCRTDd2-mediated CQ transport P = 0.9 (PfCRT^Dd2 [1]; CQ/PPQ mixture, P = 0.9, single replicates): 4.33 pmol oocyte-1 h-1 and 3.12 pmol oocyte-1 h-1 and 4.83 pmol oocyte-1 h-1
- competition plot result (binding sites) (PfCRT^Dd2 [1]; CQ/PPQ mixtures, curve with a maximum): bind at different sites
- PfCRTDd2-mediated CQ uptake at 10 µM CQ (PfCRT^Dd2 [2]; 10 µM CQ, single replicates): 0.97 pmol oocyte-1 h-1 and 1.33 pmol oocyte-1 h-1 and 1.00 pmol oocyte-1 h-1
- PfCRTDd2 uptake of CQ at 10 min (PfCRT^Dd2 [2]; [3]): 5.12 pmol oocyte-1 and 4.60 pmol oocyte-1 and 2.93 pmol oocyte-1 and 4.96 pmol oocyte-1
- PfCRTDd2 uptake of CQ at 30 min (PfCRT^Dd2 [2]; [3]): 6.73 pmol oocyte-1 and 14.34 pmol oocyte-1 and 5.71 pmol oocyte-1
- PfCRTDd2 uptake of CQ at 60 min (PfCRT^Dd2 [2]; [3]): 19.28 pmol oocyte-1 and 12.33 pmol oocyte-1 and 10.23 pmol oocyte-1 and 14.77 pmol oocyte-1
- PfCRTDd2 uptake of CQ at 90 min (PfCRT^Dd2 [2]; [3]): 15.72 pmol oocyte-1 and 19.85 pmol oocyte-1 and 18.63 pmol oocyte-1 and 19.17 pmol oocyte-1
- PfCRTDd2 uptake of CQ at 120 min (PfCRT^Dd2 [2]; [3]): 20.73 pmol oocyte-1 and 30.99 pmol oocyte-1 and 21.07 pmol oocyte-1
- PfCRTDd2 uptake of CQ at 180 min (PfCRT^Dd2 [2]; [3]): 26.87 pmol oocyte-1 and 30.32 pmol oocyte-1 and 26.73 pmol oocyte-1 and 25.67 pmol oocyte-1
- PfCRTDd2-mediated CQ uptake at 10 min (PfCRT^Dd2 [2]; [4]): 1.03 pmol oocyte-1 and 0.90 pmol oocyte-1 and 1.98 pmol oocyte-1 and 0.91 pmol oocyte-1
- PfCRTDd2-mediated CQ uptake at 30 min (PfCRT^Dd2 [2]; [4]): 1.52 pmol oocyte-1 and 5.01 pmol oocyte-1 and 4.35 pmol oocyte-1
- PfCRTDd2-mediated CQ uptake at 60 min (PfCRT^Dd2 [2]; [4]): 4.91 pmol oocyte-1 and 4.76 pmol oocyte-1 and 7.49 pmol oocyte-1 and 5.04 pmol oocyte-1
- PfCRTDd2-mediated CQ uptake at 120 min (PfCRT^Dd2 [2]; [4]): 9.09 pmol oocyte-1 and 10.40 pmol oocyte-1 and 9.67 pmol oocyte-1
- PfCRTDd2-mediated CQ uptake at 180 min (PfCRT^Dd2 [2]; [4]): 13.62 pmol oocyte-1 and 9.61 pmol oocyte-1 and 9.37 pmol oocyte-1 and 10.85 pmol oocyte-1
- PfCRTDd2-mediated CQ uptakeat 90 min (PfCRT^Dd2 [2]; [4]): 7.12 pmol oocyte-1 and 4.31 pmol oocyte-1 and 9.50 pmol oocyte-1 and 9.09 pmol oocyte-1
- PfCRTDd2-mediated CQ uptake at 50 µM CQ (PfCRT^Dd2 [2]; 50 µM CQ, single replicates): 3.98 pmol oocyte-1 h-1 and 2.97 pmol oocyte-1 h-1 and 3.90 pmol oocyte-1 h-1 and 4.91 pmol oocyte-1 h-1 and 4.76 pmol oocyte-1 h-1 and 7.49 pmol oocyte-1 h-1 and 10.46 pmol oocyte-1 h-1 and 5.04 pmol oocyte-1 h-1
- PfCRTDd2-mediated CQ uptake at 100 µM CQ (PfCRT^Dd2 [2]; 100 µM CQ, single replicates): 9.74 pmol oocyte-1 h-1 and 9.30 pmol oocyte-1 h-1 and 7.99 pmol oocyte-1 h-1
- PfCRTDd2-mediated CQ uptake at 200 µM CQ (PfCRT^Dd2 [2]; 200 µM CQ, single replicates): 17.86 pmol oocyte-1 h-1 and 9.84 pmol oocyte-1 h-1 and 13.66 pmol oocyte-1 h-1 and 12.77 pmol oocyte-1 h-1
- PfCRTDd2-mediated CQ uptake at 300 µM CQ (PfCRT^Dd2 [2]; 300 µM CQ, single replicates): 20.89 pmol oocyte-1 h-1 and 20.25 pmol oocyte-1 h-1 and 12.53 pmol oocyte-1 h-1
- PfCRTDd2-mediated CQ uptake at 400 µM CQ (PfCRT^Dd2 [2]; 400 µM CQ, single replicates): 20.30 pmol oocyte-1 h-1 and 20.79 pmol oocyte-1 h-1 and 20.10 pmol oocyte-1 h-1
- PfCRTDd2-mediated CQ uptake at 500 µM CQ (PfCRT^Dd2 [2]; 500 µM CQ, single replicates): 20.49 pmol oocyte-1 h-1 and 20.91 pmol oocyte-1 h-1 and 20.75 pmol oocyte-1 h-1 and 25.01 pmol oocyte-1 h-1
- PfCRTDd2-mediated CQ uptake at 10 µM CQ (PfCRT^Dd2 [2]; [5]): 0.97 pmol oocyte-1 h-1 and 1.33 pmol oocyte-1 h-1 and 1.00 pmol oocyte-1 h-1
- PfCRTDd2-mediated CQ uptake at 50 µM CQ (PfCRT^Dd2 [2]; [5]): 3.98 pmol oocyte-1 h-1 and 2.97 pmol oocyte-1 h-1 and 3.90 pmol oocyte-1 h-1 and 4.91 pmol oocyte-1 h-1 and 4.76 pmol oocyte-1 h-1 and 7.49 pmol oocyte-1 h-1 and 10.46 pmol oocyte-1 h-1 and 5.04 pmol oocyte-1 h-1
- PfCRTDd2-mediated CQ uptake at 100 µM CQ (PfCRT^Dd2 [2]; [5]): 9.74 pmol oocyte-1 h-1 and 9.30 pmol oocyte-1 h-1 and 7.99 pmol oocyte-1 h-1
- PfCRTDd2-mediated CQ uptake at 200 µM CQ (PfCRT^Dd2 [2]; [5]): 17.86 pmol oocyte-1 h-1 and 9.84 pmol oocyte-1 h-1 and 13.66 pmol oocyte-1 h-1 and 12.77 pmol oocyte-1 h-1
- PfCRTDd2-mediated CQ uptake at 300 µM CQ (PfCRT^Dd2 [2]; [5]): 20.89 pmol oocyte-1 h-1 and 20.25 pmol oocyte-1 h-1 and 12.53 pmol oocyte-1 h-1
- PfCRTDd2-mediated CQ uptake at 400 µM CQ (PfCRT^Dd2 [2]; [5]): 20.30 pmol oocyte-1 h-1 and 20.79 pmol oocyte-1 h-1 and 20.10 pmol oocyte-1 h-1
- PfCRTDd2-mediated CQ uptake at 500 µM CQ (PfCRT^Dd2 [2]; [5]): 20.49 pmol oocyte-1 h-1 and 20.91 pmol oocyte-1 h-1 and 20.75 pmol oocyte-1 h-1 and 25.01 pmol oocyte-1 h-1
- Vmax, maximal velocity of drug transport (PfCRT^Dd2 [2]; Michaelis-Menten fit, 10-500 μM drug, 60 min, pH 6): 33 ± 1 pmol oocyte^-1 h^-1
- Km (PfCRT^Dd2 [2]; Michaelis-Menten fit, 10-500 μM drug, 60 min, pH 6, read-out: KM, Michaelis constant): 260 ± 10 µM
- PfCRTDd2-mediated CQ transport (PfCRT^Dd2 [2]; S6 Fig, per biological replicate): 7.120 pmol oocyte-1 h-1 and 4.130 pmol oocyte-1 h-1 and 5.320 pmol oocyte-1 h-1
